Experimental data from patent publication US20190284136A1, “INDOLINE DERIVATIVES” (ViiV HEALTHCARE UK LIMITED, priority 2016, published 2019).

What follows are compounds tested on HIV (assay: Table 1 IC50 of the examples (assay method not given; patent concerns inhibiting HIV replication)). Conditions: Human immunodeficiency virus 1.
Format: cell-based
Work on Cc1cc2c(c(-c3cc(F)c4c(c3C)CCCO4)c1[C@H](OC(C)(C)C)C(=O)O)CCN2C(=O)c1cccc2c1CCO2 (atropisomer, axis not shown) [Example 177, (S)-2-(tert-Butoxy)-2-((R)-1-(2,3-dihydrobenzofuran-4-carbonyl)-4-(8-fluoro-5-methylchroman-6-yl)-6-methylindolin-5-yl)acetic acid] yielded an IC50 of 2 nM.
Compound Cc1cncc(C(=O)N2CCc3c2cc(C)c([C@H](OC(C)(C)C)C(=O)O)c3-c2cc(F)c3c(c2C)CCCO3)c1 (atropisomer, axis not shown) [Example 81, (S)-2-(tert-Butoxy)-2-((R)-4-(8-fluoro-5-methylchroman-6-yl)-6-methyl-1-(5-methylnicotinoyl)indolin-5-yl)acetic acid] has an IC50 of 14 nM.
With Cc1ccc(-c2c3c(cc(C)c2[C@H](OC(C)(C)C)C(=O)O)N(S(=O)(=O)c2ccc(F)c(F)c2)CC3)cc1 [Example 35, (S)-2-(tert-Butoxy)-2-(1-((3,4-difluorophenyl)sulfonyl)-6-methyl-4-(p-tolyl)indolin-5-yl)acetic acid] the IC50 was 9800 nM.
Cc1ccc(-c2c3c(cc(C)c2C(OC(C)(C)C)C(=O)O)N(Cc2ccc(F)c(F)c2)CCC3)cc1 (stereo not shown) [Example 212, 2-(tert-Butoxy)-2-(1-(3,4-difluorobenzyl)-7-methyl-5-(p-tolyl)-1,2,3,4-tetrahydroquinolin-6-yl)acetic acid] gave an IC50 of 1030 nM.
Cc1cc2c(c(-c3cc(F)c4c(c3C)CCCO4)c1[C@H](OC(C)(C)C)C(=O)O)CCN2C(=O)c1ccc(C(F)(F)F)nc1 (atropisomer, axis not shown) [Example 172, (S)-2-(tert-butoxy)-2-((R)-4-(8-fluoro-5-methylchroman-6-yl)-6-methyl-1-(6-(trifluoromethyl)nicotinoyl)indolin-5-yl)acetic acid] gave an IC50 of 6 nM.
Work on Cc1cc2c(c(-c3cc(F)c4c(c3C)CCCO4)c1[C@H](OC(C)(C)C)C(=O)O)CCN2C(=O)c1ccc(C(F)(F)F)c(F)c1 (atropisomer, axis not shown) [Example 140, (S)-2-(tert-Butoxy)-2-((R)-1-(3-fluoro-4-(trifluoromethyl)benzoyl)-4-(8-fluoro-5-methylchroman-6-yl)-6-methylindolin-5-yl)acetic acid] yielded an IC50 of 14 nM.
For Cc1ccccc1C(=O)N1CCc2c1cc(C)c([C@H](OC(C)(C)C)C(=O)O)c2-c1ccc2c(c1C)CCCO2 (atropisomer, axis not shown) [Example 188, (S)-2-(tert-Butoxy)-2-((R)-6-methyl-1-(2-methylbenzoyl)-4-(5-methylchroman-6-yl)indolin-5-yl)acetic acid], the IC50 was 5 nM.
With COc1ccc(C(=O)N2CCc3c2cc(C)c([C@H](OC(C)(C)C)C(=O)O)c3-c2cc(F)c3c(c2C)CCCO3)cc1Cl (atropisomer, axis not shown) [Example 124, (S)-2-(tert-Butoxy)-2-((R)-1-(3-chloro-4-methoxybenzoyl)-4-(8-fluoro-5-methylchroman-6-yl)-6-methylindolin-5-yl)acetic acid] the IC50 was 3 nM.
Work on COc1ccc(C(=O)N2CCc3c2cc(C)c([C@H](OC(C)(C)C)C(=O)O)c3-c2cc(C)c3c(c2C)CCCO3)cc1C (atropisomer, axis not shown) [Example 194, (S)-2-(tert-Butoxy)-2-((R)-4-(5,8-dimethylchroman-6-yl)-1-(4-methoxy-3-methylbenzoyl)-6-methylindolin-5-yl)acetic acid] yielded an IC50 of 43 nM.
For Cc1cc2c(c(-c3cc(F)c4c(c3C)CCCO4)c1[C@H](OC(C)(C)C)C(=O)O)CCN2C(=O)c1cccc(C(=O)N2CCCCC2)c1 (atropisomer, axis not shown) [Example 164, (S)-2-(tert-Butoxy)-2-((R)-4-(8-fluoro-5-methylchroman-6-yl)-6-methyl-1-(3-(piperidine-1-carbonyl)benzoyl)indolin-5-yl)acetic acid], the IC50 was 176 nM.
COc1cncc(C(=O)N2CCc3c2cc(C)c([C@H](OC(C)(C)C)C(=O)O)c3-c2cc(F)c3c(c2C)CCCO3)c1 [Example 151, (2S)-2-(tert-Butoxy)-2-(4-(8-fluoro-5-methylchroman-6-yl)-1-(5-methoxynicotinoyl)-6-methylindolin-5-yl)acetic acid] showed an IC50 of 17 nM.
COc1ccc(C(=O)N2CCc3c2cc(C)c([C@H](OC(C)(C)C)C(=O)O)c3-c2cc(F)c3c(c2C)CCCO3)cc1C (atropisomer, axis not shown) [Example 102, (S)-2-(tert-Butoxy)-2-((R)-4-(8-fluoro-5-methylchroman-6-yl)-1-(4-methoxy-3-methylbenzoyl)-6-methylindolin-5-yl)acetic acid] was tested, and the IC50 was 2 nM.
In the case of Cc1ccc(-c2c3c(cc(C)c2[C@H](OC(C)(C)C)C(=O)O)N(C(=O)c2cccc(F)c2)CC3)cc1 [Example 29, (S)-2-(tert-Butoxy)-2-(1-(3-fluorobenzoyl)-6-methyl-4-(p-tolyl)indolin-5-yl)acetic acid], the IC50 is reported as 17 nM.
Cc1cc2c(c(-c3cc(F)c4c(c3C)CCCO4)c1[C@H](OC(C)(C)C)C(=O)O)CCN2C(=O)c1cc2ccccc2[nH]1 (atropisomer, axis not shown) [Example 129, (S)-2-(tert-Butoxy)-2-((R)-4-(8-fluoro-5-methylchroman-6-yl)-1-(1H-indole-2-carbonyl)-6-methylindolin-5-yl)acetic acid] was tested, and the IC50 was 22 nM.
With COc1ccc(C(=O)N2CCc3c2cc(C)c([C@H](OC(C)(C)C)C(=O)O)c3-c2cc(F)c3c(c2C)CCCO3)c(F)c1 (atropisomer, axis not shown) [Example 85, (S)-2-(tert-Butoxy)-2-((R)-1-(2-fluoro-4-methoxybenzoyl)-4-(8-fluoro-5-methylchroman-6-yl)-6-methylindolin-5-yl)acetic acid] the IC50 was 6 nM.
Cc1ccc(Cl)c(C(=O)N2CCc3c2cc(C)c([C@H](OC(C)(C)C)C(=O)O)c3-c2cc(F)c3c(c2C)CCCO3)c1 (atropisomer, axis not shown) [Example 165, (S)-2-(tert-Butoxy)-2-((R)-1-(2-chloro-5-methylbenzoyl)-4-(8-fluoro-5-methylchroman-6-yl)-6-methylindolin-5-yl)acetic acid] showed an IC50 of 6 nM.
